Laboratory results reported in patent US20260217767A1, “NOVEL A4B7 THIOETHER PEPTIDE DIMER ANTAGONISTS” (Protagonist Therapeutics, Inc., priority 2014, published 2026).
*1 amine or outer side, *2 acyl side, *3 side chain or, on linkers, in order; H or OH if unused. Where a SMILES comes first, the peptide text is derived from it. Bridges are numbered along the chain shown (N, C = ends). Roman numbers before positions name the chains, in order. [ ]: non-standard residue; d: D form. Diglycolyl = O=C(COCC(=O)[*:2])[*:1]; NMeR = CN[C@@H](CCCNC(=N)N)C(=O)O; X1 = O=C(c1ccccc1C[*:2])[*:1]; Pen = CC(C)(S)[C@H](N)C(=O)O

Assays:
α4β1 = target: T1, α4β1 (Homo sapiens, UniProt P05556+P13612); assay: α4β1-VCAM Competition ELISA; format: binding; details: thioether peptide dimers, Table 7; read-out: ELISA A4B1
T1 construct: purchased R&D Systems 5668-A4
Summary of the method: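 rh VCAM-1-Fc coated plates; α4β1 (final 60 nM) and peptide (final 100 μM) incubated 2 h at 37° C. in 50 mM Tris-HCl pH 7.6, 100 mM NaCl, 1 mM MnCl2 or MgCl2, 0.05% Tween-20. Bound integrin detected with anti-CD49d 9F10 and HRP anti-mouse IgG, TMB read at 450 nm.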

[1] = Simulated Intestinal Fluid (SIF) Stability Assay; format: in vitro ADME; details: pig, porcine pancreatin, 37° C.; dimers, Table 7
Summary of the method: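 Peptide at 22 μM final was incubated at 37° C in blank FaSSIF pH 6.5 with 1% porcine pancreatin. Timed samples were quenched in acetonitrile/methanol/formic acid with internal standard and analysed by LC-MS/MS. Half-lives came from first-order exponential fits of percent remaining.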

Jurkat E6.1 cells = Jurkat E6.1 cells (Homo sapiens, UniProt P05556+P13612); assay: α4β1-VCAM Cell Adhesion Assay; format: cell-based; details: thioether peptide dimers, Table 7; read-out: Cell Adhesion A4B1
Summary of the method: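 Jurkat E6.1 cells (200,000 per well, in DMEM with 0.1% BSA and 1 mM MnCl2) allowed to adhere to rh VCAM-1 Fc-coated wells with serially diluted peptide for 30-45 min at 37° C. After washing, bound cells quantified by MTT absorbance at 570 nm, cell-free background subtracted, for dose response.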

T1 sequence (P13612 34-977 limits assumed): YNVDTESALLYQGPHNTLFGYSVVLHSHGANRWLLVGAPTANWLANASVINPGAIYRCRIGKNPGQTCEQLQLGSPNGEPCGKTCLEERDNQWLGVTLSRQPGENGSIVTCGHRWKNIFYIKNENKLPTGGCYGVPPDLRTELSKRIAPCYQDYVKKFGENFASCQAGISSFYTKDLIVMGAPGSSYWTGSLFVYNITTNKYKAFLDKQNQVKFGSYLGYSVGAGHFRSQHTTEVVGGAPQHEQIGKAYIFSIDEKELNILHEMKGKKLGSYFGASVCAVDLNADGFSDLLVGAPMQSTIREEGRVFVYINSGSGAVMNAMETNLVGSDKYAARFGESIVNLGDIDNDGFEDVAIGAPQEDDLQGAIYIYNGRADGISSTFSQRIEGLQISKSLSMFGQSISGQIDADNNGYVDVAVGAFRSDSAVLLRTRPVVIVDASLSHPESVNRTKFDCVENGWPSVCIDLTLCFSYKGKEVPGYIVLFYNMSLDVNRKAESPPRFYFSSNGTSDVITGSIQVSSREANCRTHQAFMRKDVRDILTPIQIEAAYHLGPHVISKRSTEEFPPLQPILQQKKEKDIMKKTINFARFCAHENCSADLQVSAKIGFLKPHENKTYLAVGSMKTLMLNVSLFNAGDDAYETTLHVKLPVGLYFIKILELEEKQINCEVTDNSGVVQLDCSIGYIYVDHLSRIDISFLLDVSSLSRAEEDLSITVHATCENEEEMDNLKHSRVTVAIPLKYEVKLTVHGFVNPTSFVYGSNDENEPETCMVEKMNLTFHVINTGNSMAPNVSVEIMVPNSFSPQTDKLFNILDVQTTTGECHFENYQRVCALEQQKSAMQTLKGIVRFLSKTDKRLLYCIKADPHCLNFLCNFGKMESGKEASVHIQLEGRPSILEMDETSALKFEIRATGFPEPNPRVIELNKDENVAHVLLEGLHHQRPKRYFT
T1 sequence (P05556 21-728 limits assumed): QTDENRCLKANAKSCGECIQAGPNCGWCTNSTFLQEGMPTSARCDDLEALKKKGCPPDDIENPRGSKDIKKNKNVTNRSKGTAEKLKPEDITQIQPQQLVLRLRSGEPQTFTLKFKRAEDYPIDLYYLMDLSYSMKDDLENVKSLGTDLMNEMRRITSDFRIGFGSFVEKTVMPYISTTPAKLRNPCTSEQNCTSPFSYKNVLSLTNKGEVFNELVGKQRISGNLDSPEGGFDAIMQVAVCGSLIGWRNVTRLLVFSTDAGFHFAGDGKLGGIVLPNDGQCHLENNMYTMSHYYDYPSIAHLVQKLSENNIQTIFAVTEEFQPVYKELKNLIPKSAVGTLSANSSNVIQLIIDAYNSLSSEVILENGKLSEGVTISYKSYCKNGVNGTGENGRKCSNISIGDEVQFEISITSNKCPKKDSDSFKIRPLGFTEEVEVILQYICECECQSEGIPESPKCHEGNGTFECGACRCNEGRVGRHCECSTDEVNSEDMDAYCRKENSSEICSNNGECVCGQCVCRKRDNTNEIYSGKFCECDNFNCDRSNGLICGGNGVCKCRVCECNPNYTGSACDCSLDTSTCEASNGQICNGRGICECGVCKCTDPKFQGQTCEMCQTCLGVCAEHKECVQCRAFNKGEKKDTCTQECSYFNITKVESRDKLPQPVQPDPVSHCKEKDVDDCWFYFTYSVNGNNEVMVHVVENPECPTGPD
Chain of Jurkat E6.1 cells (P13612 34-1032): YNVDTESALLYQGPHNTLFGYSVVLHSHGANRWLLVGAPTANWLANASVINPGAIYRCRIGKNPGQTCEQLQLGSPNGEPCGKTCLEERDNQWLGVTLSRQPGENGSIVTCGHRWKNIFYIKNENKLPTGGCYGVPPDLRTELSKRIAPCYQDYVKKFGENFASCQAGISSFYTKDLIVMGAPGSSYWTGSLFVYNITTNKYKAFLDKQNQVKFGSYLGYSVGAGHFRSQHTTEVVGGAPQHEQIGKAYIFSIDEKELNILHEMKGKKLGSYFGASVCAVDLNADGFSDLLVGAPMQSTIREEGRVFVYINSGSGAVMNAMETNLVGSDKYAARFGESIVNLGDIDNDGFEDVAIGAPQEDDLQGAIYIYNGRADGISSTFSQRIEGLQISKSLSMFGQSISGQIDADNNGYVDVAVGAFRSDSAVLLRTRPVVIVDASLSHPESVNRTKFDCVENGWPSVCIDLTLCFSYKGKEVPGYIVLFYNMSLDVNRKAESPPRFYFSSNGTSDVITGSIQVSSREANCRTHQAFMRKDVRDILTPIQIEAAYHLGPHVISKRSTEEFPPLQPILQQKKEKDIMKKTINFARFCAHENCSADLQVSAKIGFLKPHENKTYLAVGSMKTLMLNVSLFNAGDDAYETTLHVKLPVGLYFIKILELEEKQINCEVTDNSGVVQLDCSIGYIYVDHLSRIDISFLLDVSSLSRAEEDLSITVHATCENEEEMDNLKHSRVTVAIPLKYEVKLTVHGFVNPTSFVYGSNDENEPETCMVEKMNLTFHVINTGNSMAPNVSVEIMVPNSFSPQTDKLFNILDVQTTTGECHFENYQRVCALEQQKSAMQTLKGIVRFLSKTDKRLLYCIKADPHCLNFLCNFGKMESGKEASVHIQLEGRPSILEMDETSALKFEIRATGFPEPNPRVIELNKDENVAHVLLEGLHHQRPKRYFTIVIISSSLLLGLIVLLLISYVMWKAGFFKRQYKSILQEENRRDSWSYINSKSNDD
Chain of Jurkat E6.1 cells (P05556 21-798): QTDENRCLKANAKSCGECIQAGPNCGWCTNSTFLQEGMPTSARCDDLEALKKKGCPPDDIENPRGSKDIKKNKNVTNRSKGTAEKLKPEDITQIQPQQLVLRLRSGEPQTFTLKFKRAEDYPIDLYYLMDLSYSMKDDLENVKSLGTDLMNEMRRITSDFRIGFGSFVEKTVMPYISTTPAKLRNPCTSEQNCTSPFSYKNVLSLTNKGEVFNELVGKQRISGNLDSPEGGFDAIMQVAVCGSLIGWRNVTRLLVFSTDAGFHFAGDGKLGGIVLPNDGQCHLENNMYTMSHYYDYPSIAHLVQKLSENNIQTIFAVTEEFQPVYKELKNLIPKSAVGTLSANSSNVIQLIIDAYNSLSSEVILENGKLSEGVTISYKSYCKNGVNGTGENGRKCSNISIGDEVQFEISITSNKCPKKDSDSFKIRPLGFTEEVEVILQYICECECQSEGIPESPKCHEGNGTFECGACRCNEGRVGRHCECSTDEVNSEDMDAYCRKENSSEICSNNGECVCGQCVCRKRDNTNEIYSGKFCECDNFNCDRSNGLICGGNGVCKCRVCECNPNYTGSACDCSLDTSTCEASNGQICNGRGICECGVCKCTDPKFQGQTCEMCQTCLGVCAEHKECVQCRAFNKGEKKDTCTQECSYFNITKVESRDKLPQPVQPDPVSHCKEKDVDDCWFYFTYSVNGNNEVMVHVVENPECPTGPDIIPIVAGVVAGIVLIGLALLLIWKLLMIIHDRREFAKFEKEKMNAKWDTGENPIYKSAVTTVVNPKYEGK

CC(C)C[C@@H]1NC(=O)[C@H]([C@@H](C)O)NC(=O)[C@H](CC(=O)O)NC(=O)[C@H](CO)NC(=O)[C@H](CCCNC(=N)N)N(C)C(=O)c2ccccc2CSC(C)(C)[C@@H](C(=O)N[C@@H](Cc2ccccc2)C(=O)N[C@H](CCC(=O)O)C(=O)N[C@H](CCCCNC(=O)COCC(=O)NCCCC[C@@H](NC(=O)[C@@H](CCC(=O)O)NC(=O)[C@H](Cc2ccccc2)NC(=O)[C@H]2NC(=O)[C@H](CC(C)C)NC(=O)[C@H]([C@@H](C)O)NC(=O)[C@H](CC(=O)O)NC(=O)[C@H](CO)NC(=O)[C@H](CCCNC(=N)N)N(C)C(=O)c3ccccc3CSC2(C)C)C(=O)O)C(=O)O)NC1=O [compound 204] (I: [NMeR]SDTL[Pen]F[dE][dK]-OH / II: [NMeR]SDTL[Pen]F[dE][dK]-OH; linker I:9-II:9 via Diglycolyl; linker I:N-I:6, II:N-II:6 via X1)
IC50 (α4β1): 0.1 to 1 µM
half-life [1]: > 3 h
IC50 (Jurkat E6.1 cells): > 100 µM
